Reference: patent publication US11351173B2, “Substituted pyrrolo[1,2-a]pyrimidines and their use in the treatment of medical disorders” (Bial—R&D Investments, S.A., priority 2014, dated 2022)
In brackets after ≈: the same amount, converted by molar mass.

How the values were obtained:
[1] = biological target: T1, glucocerebrosidase (Gcase) (Homo sapiens, UniProt P04062); assay: Glucocerebrosidase (Gcase) activation assay, 4-methylumbelliferyl-beta-D-glucopyranoside substrate, fluorescence readout; format: biochemical; conditions: for activation at 0.1 µM / Percent Gcase Activation, 0.1 μM Test Compound: test compound at 0.1 μM; for activation at 0.1 µM: read-out: Percent Gcase Activation, 0.1 μM Test Compound; for activation at 1 µM / Percent Gcase Activation, 1 μM Test Compound: test compound at 1.0 μM; for activation at 1 µM: read-out: Percent Gcase Activation, 1 μM Test Compound
T1 construct: micellar solution containing 10 nM GCase and 100 nM saposin C
T1 sequence (P04062 40-536): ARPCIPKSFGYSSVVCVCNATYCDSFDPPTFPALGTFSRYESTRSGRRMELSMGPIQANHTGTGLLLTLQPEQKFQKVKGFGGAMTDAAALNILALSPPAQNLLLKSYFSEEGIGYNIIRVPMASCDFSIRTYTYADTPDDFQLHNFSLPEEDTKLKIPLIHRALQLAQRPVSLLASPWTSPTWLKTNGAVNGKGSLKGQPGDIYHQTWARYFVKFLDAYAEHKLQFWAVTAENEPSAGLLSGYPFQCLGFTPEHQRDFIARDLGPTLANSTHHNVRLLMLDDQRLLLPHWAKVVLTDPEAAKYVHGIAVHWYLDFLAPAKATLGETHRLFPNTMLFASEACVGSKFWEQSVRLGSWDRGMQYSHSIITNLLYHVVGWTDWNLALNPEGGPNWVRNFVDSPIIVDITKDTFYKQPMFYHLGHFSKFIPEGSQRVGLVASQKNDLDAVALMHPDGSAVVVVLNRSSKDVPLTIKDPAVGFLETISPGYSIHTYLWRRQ
Protocol: The ability of exemplary compounds to activate glucocerebrosidase (Gcase) was measured.
A 484 μL aliquot of a 1.0 mg/mL solution of phosphatidylserine (PS) (Sigma P7769) in chloroform was evaporated under a stream of nitrogen for 1 hour. The lipid film was dissolved over 4 minutes of vigorous vortexing in 40 mL of 176 mM K2HPO4/50 mM citric acid (pH 4.7) containing 7.5 μL of triton X-100, resulting in a mixed micellar preparation with a composition of 0.32 mM triton and 0.37 mol % PS. 4-Methylumbelliferyl-beta-D-glucopyranoside (ACROS-337025000) was dissolved in the micellar solution to a final concentration of 2 mM for use as the reaction substrate.
Test compounds were diluted to the desired concentrations with dimethylsulfoxide (DMSO) from 10 mM stocks, and 0.41 μL of the DMSO compound mixture was added to 100 μL of micellar solution containing 10 nM GCase and 100 nM saposin C (Enzo ALX-201-262-C050). Pre-incubation was allowed to occur for 30 minutes at room temperature, after which the reaction was initiated by combining 25 μL of substrate solution with 25 μL of compound/GCase/saposin mixture. The reaction proceeded for 15 minutes at room temperature and was stopped by adding 150 μL of 1M glycine, pH 12.5. The endpoint of the reaction was monitored by measuring fluorescence intensity (excitation: 365 nm; emission: 440 nm) on a SpectraMax i3 instrument (Molecular Devices). Test compounds were screened at 1.0 and 0.1 μM final concentration, and subsequent 8-point dose response curves were obtained using 3-fold dilutions from a maximum final concentration of 5 μM.

[2] = Compound solubility in water; conditions: water; for solubility: Compound Solubility in Water

Row | activation at 0.1 µM [1] | activation at 1 µM [1] | solubility [2] | Percent Gcase Activation, 0.1 μM Test Compound [1] | Percent Gcase Activation, 1 μM Test Compound [1] | Compound Solubility in Water [2] | solubility ([2]; in water) | SMILES
1 | > 20% | > 60% | 0.9 µg/mL (≈ 2.53 µM) | – | – | – | – | Cc1cc(C(F)F)nc2c(C(=O)NC3CCCc4ccccc43)ccn12 (centres unmarked) [III-29]
2 | 10 to 20% | > 60% | 2.1 µg/mL (≈ 4.87 µM) | – | – | – | – | COCc1cc(COC)n2ccc(C(=O)NC3(C)CCOc4cc(F)c(F)cc43)c2n1 (centres unmarked) [III-155]
3 | > 20% | > 60% | 1 µg/mL (≈ 2.64 µM) | – | – | – | – | CCCCO[C@H]1CC[C@H](NC(=O)c2ccn3c(C(F)F)cc(C)nc23)CC1 [III-68]
4 | – | – | – | *** (greater than 20% Gcase activation) | +++ (Gcase activation greater than 60%) | <0.1 µg/mL | – | Cc1cc(C)n2ccc(C(=O)Nc3ccc(-c4ccco4)cc3)c2n1 [III-9]
5 | > 20% | > 60% | 0.8 µg/mL (≈ 2.5 µM) | – | – | – | – | Cc1cc(C)n2ccc(C(=O)NC3CCCc4ccccc43)c2n1 (centres unmarked) [III-167]
6 | > 20% | > 60% | – | – | – | – | 8.7 µg/mL (≈ 25.3 µM) | Cc1cc(C)n2ccc(C(=O)N[C@H]3CC[C@H](OCC(C)C)CC3)c2n1 [III-288]
7 | 10 to 20% | 30 to 60% | 15.3 µg/mL (≈ 47.6 µM) | – | – | – | – | Cc1cc(C)n2ccc(C(=O)NCC3CCC(F)(F)CC3)c2n1 [III-153]
8 | < 10% | > 60% | 10.1 µg/mL (≈ 34.8 µM) | – | – | – | – | C#Cc1ccc(NC(=O)c2ccn3c(C)cc(C)nc23)cn1 [III-5]
9 | < 10% | 30 to 60% | 1.9 µg/mL (≈ 5.36 µM) | – | – | – | – | Cc1cc(C)n2ccc(C(=O)NC3CCN(c4ccsc4)CC3)c2n1 [III-115]
10 | > 20% | > 60% | 0.06 µg/mL (≈ 0.171 µM) | – | – | – | – | Cc1cc(Cl)nc2c(C(=O)NC3c4ccccc4C4CC3C4)ccn12 (centres unmarked) [III-69]
11 | > 20% | > 60% | < 1.5 µg/mL | – | – | – | – | Cc1cc(C)n2ccc(C(=O)Nc3ccc(C)c(-c4ncco4)c3)c2n1 [III-149]
12 | 10 to 20% | 30 to 60% | 0.01 µg/mL (≈ 0.0292 µM) | – | – | – | – | Cc1cc(C)n2ccc(C(=O)Nc3ccc(-c4ccncc4)cc3)c2n1 [III-11]
13 | > 20% | > 60% | 5.8 µg/mL (≈ 16.3 µM) | – | – | – | – | Cc1cc(C)n2ccc(C(=O)N[C@H]3CC[C@H](OC4CCCC4)CC3)c2n1 [III-132]
14 | 10 to 20% | > 60% | – | – | – | – | 0.9 µg/mL (≈ 2.11 µM) | COCc1cc(C2CC2)nc2c(C(=O)NC3(C)CCOc4cc(F)c(F)cc43)ccn12 (centres unmarked) [III-266]
15 | > 20% | > 60% | < 0.1 µg/mL | – | – | – | – | CCCCCOc1ccc(NC(=O)c2ccn3c(C)cc(C)nc23)cc1 [III-6]
16 | 10 to 20% | > 60% | 13.9 µg/mL (≈ 35.5 µM) | – | – | – | – | C#Cc1ccc(C(C)(C)NC(=O)c2ccn3c(COC)cc(COC)nc23)cc1 [III-156]
17 | > 20% | > 60% | – | – | – | – | 0.9 µg/mL (≈ 2.82 µM) | Cc1cc(C)n2ccc(C(=O)NC3CCc4ccccc4C3)c2n1 (centres unmarked) [III-228]
18 | 10 to 20% | > 60% | – | – | – | – | 0.8 µg/mL (≈ 1.99 µM) | CCCCO[C@H]1CC[C@H](NC(=O)c2ccn3c(COC)cc(CCC)nc23)CC1 [III-269]
19 | < 10% | < 30% | 15.5 µg/mL (≈ 45 µM) | – | – | – | – | CCCCOC(=O)N1CC(NC(=O)c2ccn3c(C)cc(C)nc23)C1 [III-137]
20 | > 20% | 30 to 60% | 0.3 µg/mL (≈ 0.814 µM) | – | – | – | – | Cc1cc(C(F)F)n2ccc(C(=O)Nc3ccc(-c4cocn4)cc3)c2n1 [III-27]
21 | > 20% | > 60% | – | – | – | 0.4 µg/mL | – | Cc1cc(C)n2ccc(C(=O)NC3CCC(c4cccs4)CC3)c2n1 (centres unmarked) [III-187]
22 | 10 to 20% | > 60% | 1.5 µg/mL (≈ 3.43 µM) | – | – | – | – | COCc1cc(C(F)F)nc2c(C(=O)NC3(C)CCOc4cc(F)c(F)cc43)ccn12 (centres unmarked) [III-57]
23 | < 10% | > 60% | – | – | – | – | 4 µg/mL (≈ 12.6 µM) | Cc1ccnc2c(C(=O)Nc3ccc(-c4ncco4)cc3)ccn12 [III-256]

Row | activation at 0.1 µM [1] | activation at 1 µM [1] | solubility [2] | Percent Gcase Activation, 0.1 μM Test Compound [1] | Percent Gcase Activation, 1 μM Test Compound [1] | Compound Solubility in Water [2] | solubility ([2]; in water) | SMILES
24 | > 20% | > 60% | 10.6 µg/mL (≈ 25.4 µM) | – | – | – | – | CCCCCO[C@H]1CC[C@H](NC(=O)c2ccn3c(COC)cc(COC)nc23)CC1 [III-154]
25 | – | – | – | *** (greater than 20% Gcase activation) | – | – | 0.06 µg/mL (≈ 0.174 µM) | Cc1cc(C)n2ccc(C(=O)Nc3ccc(-c4cnn(C)c4)cc3)c2n1 [III-278]
26 | 10 to 20% | > 60% | 1.8 µg/mL (≈ 4.4 µM) | – | – | – | – | CCCCO[C@H]1CC[C@H](NC(=O)c2ccn3c(COC)cc(C(F)F)nc23)CC1 [III-34]
27 | < 10% | < 30% | 2.4 µg/mL (≈ 6.57 µM) | – | – | – | – | Cc1cc(C)n2ccc(C(=O)N[C@H]3CC[C@H](Oc4ncccn4)CC3)c2n1 [III-90]
28 | 10 to 20% | > 60% | 0.8 µg/mL (≈ 2.21 µM) | – | – | – | – | C#Cc1cccc(C(C)(C)NC(=O)c2ccn3c(COC)cc(C)nc23)c1 [III-63]
29 | 10 to 20% | > 60% | – | – | – | – | 1.3 µg/mL (≈ 3.49 µM) | Cc1cc(C)n2ccc(C(=O)NC3Cc4ccc(-c5ncco5)cc4C3)c2n1 (centres unmarked) [III-242]
30 | 10 to 20% | – | 27.3 µg/mL (≈ 83.4 µM) | – | +++ (Gcase activation greater than 60%) | – | – | Cc1cc(C)n2ccc(C(=O)NC3CCC4(CCCCO4)C3)c2n1 (centres unmarked) [III-82]
31 | 10 to 20% | > 60% | 0.07 µg/mL (≈ 0.168 µM) | – | – | – | – | [2H]C1(NC(=O)c2ccn3c(COC)cc(C(C)C)nc23)CCOc2cc(F)c(F)cc21 (centres unmarked) [III-59]
32 | > 20% | > 60% | 11.7 µg/mL (≈ 28.6 µM) | – | – | – | – | CCCCO[C@H]1CC[C@H](NC(=O)c2ccn3c(C(F)F)cc(COC)nc23)CC1 [III-35]
33 | < 10% | < 30% | 0.3 µg/mL (≈ 0.905 µM) | – | – | – | – | Cc1cc(C)n2ccc(C(=O)Nc3ccc(-n4ccnc4)cc3)c2n1 [III-86]
34 | < 10% | > 60% | – | – | – | – | 17.3 µg/mL (≈ 52.5 µM) | CCCO[C@H]1CC[C@H](NC(=O)c2ccn3c(C)cc(C)nc23)CC1 [III-290]
35 | 10 to 20% | > 60% | 11.1 µg/mL (≈ 32.3 µM) | – | – | – | – | CC[C@H](C)O[C@H]1CC[C@H](NC(=O)c2ccn3c(C)cc(C)nc23)CC1 [III-125]
36 | < 10% | 30 to 60% | – | – | – | – | 27.1 µg/mL (≈ 80.6 µM) | Cc1cc(C)n2ccc(C(=O)NC3CC=C(c4ncco4)CC3)c2n1 (centres unmarked) [III-247]
37 | – | – | – | *** (greater than 20% Gcase activation) | +++ (Gcase activation greater than 60%) | – | 0.005 µg/mL (≈ 0.0142 µM) | CCCCCOc1ccc(NC(=O)c2ccn3c(C)cc(C)nc23)cc1 [III-273]
38 | < 10% | < 30% | 29.9 µg/mL (≈ 99.2 µM) | – | – | – | – | COC1CCCCC1NC(=O)c1ccn2c(C)cc(C)nc12 (centres unmarked) [III-98]
39 | < 10% | < 30% | 38.5 µg/mL (≈ 104 µM) | – | – | – | – | Cc1cc(C)n2ccc(C(=O)NC3CCC(C(=O)N(C)C4CC4)CC3)c2n1 (centres unmarked) [III-134]
40 | < 10% | 30 to 60% | 12.3 µg/mL (≈ 36 µM) | – | – | – | – | Cc1cc(C)n2ccc(C(=O)NC3CCC(C4CCCO4)CC3)c2n1 (centres unmarked) [III-199]
41 | > 20% | > 60% | 0.08 µg/mL (≈ 0.199 µM) | – | – | – | – | Cc1cc(C)n2ccc(C(=O)Nc3ccc4c(c3)C(Oc3cc(C)on3)CC4)c2n1 (centres unmarked) [III-96]
42 | > 20% | > 60% | 3.8 µg/mL (≈ 10.2 µM) | – | – | – | – | Cc1cc(C)n2ccc(C(=O)NC3(C)CCOc4cc(F)c(F)cc43)c2n1 (centres unmarked) [III-174]
43 | < 10% | < 30% | – | – | – | – | 13.8 µg/mL (≈ 34.7 µM) | Cc1cc(C)n2ccc(C(=O)NC3CCCc4ccc(S(C)(=O)=O)cc43)c2n1 (centres unmarked) [III-230]
44 | < 10% | < 30% | 27.2 µg/mL (≈ 84.9 µM) | – | – | – | – | Cc1cc(C)n2ccc(C(=O)NC3CCCc4cccnc43)c2n1 (centres unmarked) [III-193]
45 | 10 to 20% | > 60% | 4.1 µg/mL (≈ 9.37 µM) | – | – | – | – | COCc1cc(C(F)F)n2ccc(C(=O)NC3(C)CCOc4cc(F)c(F)cc43)c2n1 (centres unmarked) [III-58]
